Paper PMC10649961, “Novel Mitochondria-Targeted Amphiphilic Aminophosphonium Salts and Lipids Nanoparticles: Synthesis, Antitumor Activity and Toxicity” (Nanomaterials, 2023)
Where two headings read alike, the source gives them in different places. Where a SMILES comes first, the peptide text is derived from it. [ ]: non-standard residue; d: D form. Orn = NCCC[C@H](N)C(=O)O

Legend:
[1] = test system: human volunteer donor erythrocytes; assay: Hemolytic assay; assay type: cell-based; conditions: hemolysis in 50% of human erythrocytes, 1 h, 37 °C
Protocol: The hemolytic activity of Aminophosphonium Salts was assessed by comparing the optical density of a solution containing the test compound with the optical density of blood at 100% hemolysis. Healthy human volunteer donor erythrocytes were used as the object of the study. Red blood cells with EDTA (1.8 mg/mL) were washed three times with saline (0.9% NaCl), centrifuged for 10 min at 800× g rpm, and resuspended in saline (0.9% NaCl) to a concentration of 10%. The tested concentrations (0.1–100 μM) were prepared in physiological solution (0.9% NaCl) (with the addition of 5% DMSO). Compounds at the appropriate dilution (450 μL) were added to 50 μL of a 10% red blood cell suspension. Samples were incubated for 1 h at 37 °C and centrifuged for 10 min at 2000 rpm. The release of hemoglobin was controlled by measuring the optical density of the supernatant on an InvitroLogic microplate reader at λ = 540 nm. A control sample corresponding to zero hemolysis (blank experiment) was prepared by adding 50 μL of a 10% red blood cell suspension to 450 μL of saline (0.9% NaCl). A control sample corresponding to 100% hemolysis was prepared by adding 50 μL of a 10% red blood cell suspension to 450 μL of distilled water. Blood was taken at the Clinic of the Federal Research Center “Kazan Scientific Center of the Russian Academy of Sciences” from healthy donors with their personal consent.

A549 [2] = test system: A549
T98G [3] = assay: cells; conditions: Homo sapiens, 48 h, read-out: Cytotoxic Effects (IC50)
Hep G2 [4] = assay: cells; conditions: Homo sapiens, HepG2, 48 h, read-out: Cytotoxic Effects (IC50)
PC3 [5] = assay: cells; conditions: Homo sapiens, PC-3, 48 h, read-out: Cytotoxic Effects (IC50), PC3, MTT assay, 48 h
Hep G2 [6] = test system: Hep G2
DU-145 [7] = test system: DU-145
A549 [8] = assay: cells; conditions: Homo sapiens, A549, 48 h, read-out: Cytotoxic Effects (IC50)
HuTu 80 [9] = assay: cells; conditions: Homo sapiens, HuTu80, 48 h, read-out: Cytotoxic Effects (IC50)
SK-OV-3 [10] = test system: SK-OV-3
PANC-1 [11] = assay: cells; conditions: Homo sapiens, PANC-1, 48 h, read-out: Cytotoxic Effects (IC50)
mice of the CD-1 line = assay: In vivo acute toxicity, single intraperitoneal injection; conditions: for onset of animal death after administration: CD-1 mice, i.p., doses of LD100; for acute toxicity class: according to the classification [105], parenteral administration
Protocol: (§1) The study of acute toxicity was performed on males of outbred white mice of the CD-1 line at the age of 2–3 months, weighing 20–30 g. The total number of mice participating in the experiment was 300. Mice were obtained from the Research and Production Enterprise Laboratory Animal Farm based at the Branch of Shemyakin and Ovchinnikov Institute of Bioorganic Chemistry of the Russian Academy of Sciences (Pushchino, Russia). The animals were kept in accordance with in standard conditions in a vivarium with 12 h of daylight and free access to food and water. The animals were fed complete feed made according to specifications (protein 22%, fiber 4% max., fat 5% max, ash 9% max, humidity 13.5% max, caloric value 295 kcal/100 g). The studies were conducted with a single parenteral–intraperitoneal (intra-peritoneal) injection, according to the method.
(§2) The substances were introduced in a sterile saline DMSO (40% vol.) solution. Solutions of the substances were prepared immediately before administration. The total volume of the injected liquid was 0.1 mL/10 g of animal weight. As a control, a group of mice was administered under similar conditions an equivalent amount (0.1 mL/10 g, or 10 mL/kg) of a solvent—40% DMSO on sterile saline solution. The substances were administered in doses ranging from 1 to 100 mg/kg; there were six animals in each group. To assess acute toxicity, the animals were monitored 14 days after administration of the substance, assessing their general condition and recording deaths.
(§3) The study of the acute toxicity parameters of six aminophosphonium salts 4a, 4b, 4d, 5a, 5b, and 6b was performed on male outbreed white mice of the CD-1 line. Acute toxicity was determined with a single parenteral (intraperitoneal) administration in sterile saline/DMSO (40% vol.) solution at doses from 1 to 100 mg/kg. To assess acute toxicity, the animals were monitored for 14 days after the introduction of substances, assessing their general condition and recording deaths. Next, lethal doses LD50, LD0, LD16, LD84, and LD100 were calculated using the Probit analysis method. LD0, LD16, LD84, and LD100 are given in Supplementary Material (Table S1).

[12] = as above; set-up: species or system mice; conditions: male, CD-1, mouse, in vivo, ip, male CD-1 mice, single intraperitoneal administration, 14 days, Probit analysis
Protocol: as §1, §2, §3

PC3 [13] = test system: PC3
M-HeLa [14] = test system: M-HeLa
MCF-7 [15] = test system: MCF-7
T98G [16] = test system: T98G
SK-OV-3 [17] = assay: cells; conditions: Homo sapiens, SK-OV-3, 48 h, read-out: Cytotoxic Effects (IC50)
PANC-1 [18] = test system: PANC-1
DU-145 [19] = assay: cells; conditions: Homo sapiens, DU-145, 48 h, read-out: Cytotoxic Effects (IC50), DU-145, MTT assay, 48 h
MCF-7 [20] = assay: cells; conditions: Homo sapiens, MCF7, 48 h, read-out: Cytotoxic Effects (IC50)
M-HeLa [21] = assay: cells; conditions: Homo sapiens, 48 h, read-out: Cytotoxic Effects (IC50)
HuTu 80 [22] = test system: HuTu 80
[23] = test system: Candida albicans ATCC 10231; assay: Antimicrobial activity, serial microdilutions, Ca; assay type: cell-based; set-up: key to Minimum Inhibitory Concentration (MIC) / Minimum bactericidal and fungicidal concentrations (MBC, MFC): – means non-active; conditions: Ca
Protocol: (§4) The antimicrobial activity of test compounds was determined by serial microdilutions in 96-well plates using Mueller-Hinton broth for bacterial culture and Sabouraud broth for yeast culture. Cultures of Gram-positive bacteria were used in the experiment: Staphylococcus aureus ATCC 6538 P FDA 209P, Bacillus cereus ATCC 10702 NCTC 8035, Enterococcus faecalis ATCC 29212; Gram-negative bacteria: Escherichia coli ATCC 25922, Pseudomonas aeruginosa ATCC 9027; and yeast: Candida albicans ATCC 10231, purchased from the State Collection of Pathogenic Microorganisms and Cell Cultures “SCPM-Obolensk” (Obolensk, Russia). Methicillin-resistant strains of S. aureus (MRSA) were isolated from patients with chronic tonsillitis (MRSA-1) and sinusitis (MRSA-2) in the bacteriological laboratory of the Republican Clinical Hospital (Kazan, Russia). The experiments were carried out in triplicate.

[24] = test system: Enterococcus faecalis ATCC 29212; assay: Antimicrobial activity, serial microdilutions, Ef; assay type: cell-based; conditions: Enterococcus faecalis
Protocol: as §4

MRSA-1 = assay: Antimicrobial activity, serial microdilutions, MRSA-1; assay type: cell-based, S. aureus; set-up: key to Minimum Inhibitory Concentration (MIC) / Minimum bactericidal and fungicidal concentrations (MBC, MFC): – means non-active
Protocol: as §4

[25] = test system: Staphylococcus aureus ATCC 6538 P FDA 209P; assay: Antimicrobial activity, serial microdilutions, Sa; assay type: cell-based; conditions: Staphylococcus aureus
Protocol: as §4

[26] = test system: Pseudomonas aeruginosa ATCC 9027; assay: Antimicrobial activity, serial microdilutions, Pa; assay type: cell-based; set-up: key to Minimum Inhibitory Concentration (MIC) / Minimum bactericidal and fungicidal concentrations (MBC, MFC): – means non-active
Protocol: as §4

[27] = test system: Bacillus cereus ATCC 10702 NCTC 8035; assay: Antimicrobial activity, serial microdilutions, Bc; assay type: cell-based; set-up: key to Minimum bactericidal and fungicidal concentrations (MBC, MFC): – means non-active; conditions: Bc
Protocol: as §4

[28] = test system: Escherichia coli ATCC 25922; assay: Antimicrobial activity, serial microdilutions, Ec; assay type: cell-based; set-up: key to Minimum Inhibitory Concentration (MIC) / Minimum bactericidal and fungicidal concentrations (MBC, MFC): – means non-active
Protocol: as §4

MRSA-2 = assay: Antimicrobial activity, serial microdilutions, MRSA-2; assay type: cell-based, S. aureus; conditions: Staphylococcus aureus
Protocol: as §4

[29] = calculated relative to the cell line WI38 (a)
[30] = reference normal cell line not marked at the place (ns cells)
[31] = read-out: Minimum Inhibitory Concentration (MIC)
[32] = read-out: Minimum bactericidal and fungicidal concentrations (MBC, MFC)
[33] = calculated relative to the cell line Chang liver (b)

Work on `CC(C)C[C@@H]1NC(=O)[C@H](CCCN)NC(=O)[C@H](C(C)C)NC(=O)[C@@H]2CCCN2C(=O)[C@@H](Cc2ccccc2)NC(=O)[C@H](CC(C)C)NC(=O)[C@H](CCCN)NC(=O)[C@H](C(C)C)NC(=O)[C@@H]2CCCN2C(=O)[C@@H](Cc2ccccc2)NC1=O` [Gramicidin S, reference compound] (cyclo(L[dF]PV[Orn]L[dF]PV[Orn])) yielded an HC50 [1] of 9.4 ± 0.8 µM.

In the case of `CCCCCC[P+](c1ccccc1)(N(CC)CC)N(CC)CC` [5a, Bis(diethylamino)(hexyl)(phenyl)phosphonium iodide], the “times less toxic toward the normal WI38 cell line compared with doxorubicin” value (WI38) is reported as 157 times, the “selectivity index (SI)” value (A549 [2]; [29]) is reported as 3.7 and the IC50 (T98G [3]) is reported as 30.3 ± 2.1 µM. For the same compound, the IC50 (Hep G2 [4]) was 16.5 ± 1.3 µM, the IC50 (PC3 [5]) was 4.9 ± 0.4 µM and the “selectivity index (SI)” value (Hep G2 [6]; [29]) was 3.8. The “selectivity index (SI)” value (DU-145 [7]; [29]) was 10, the IC50 (A549 [8]) was 17 ± 1.3 µM and the IC50 (HuTu 80 [9]) was 0.3 ± 0.02 µM. For the same compound, the “selectivity index (SI)” value (SK-OV-3 [10]; [29]) was 3.2, the IC50 (PANC-1 [11]) was 17.8 ± 1.4 µM and the “onset of animal death after administration” value (mice of the CD-1 line) was 1 to 2 h. The acute toxicity class (mice of the CD-1 line) was “moderately toxic”, the LD50 at 14 days [12] was 44.7 mg/kg and the “selectivity index (SI)” value (PC3 [13]; [29]) was 13. For the same compound, the “selectivity index (SI)” value (M-HeLa [14]; [29]) was 2.7, the “selectivity index (SI)” value (MCF-7 [15]; [29]) was 3.7 and the “selectivity index (SI)” value (T98G [16]; [29]) was 3.7. For the same compound, the IC50 (SK-OV-3 [17]) was 20 ± 1.6 µM, the “selectivity index (SI)” value (PANC-1 [18]; [29]) was 3.5 and the IC50 (DU-145 [19]) was 6.3 ± 0.5 µM. The IC50 (MCF-7 [20]) was 17.1 ± 1.3 µM, the IC50 (M-HeLa [21]) was 23 ± 1.6 µM and the “selectivity index (SI)” value (HuTu 80 [22]; [29]) was 210.

With `CCCCCC[P+](N(CC)CC)(N(CC)CC)N(CC)CC` [4a, Tris(diethylamino)(hexyl)phosphonium iodide] the “Minimum Inhibitory Concentration (MIC)” value [23] was “–”, the “Minimum bactericidal and fungicidal concentrations (MBC, MFC)” value [23] was “–” and the MIC ([24]; ATCC29212, read-out: Minimum Inhibitory Concentration (MIC)) was 250 ± 21 µM. The MBC ([24]; ATCC29212, read-out: Minimum bactericidal and fungicidal concentrations (MBC, MFC)) was 500 ± 46 µM, the “Minimum bactericidal and fungicidal concentrations (MBC, MFC)” value (MRSA-1) was “–” and the MIC (MRSA-1; Staphylococcus aureus, read-out: Minimum Inhibitory Concentration (MIC)) was 125 ± 10 µM. For the same compound, the “selectivity index (SI)” value (A549 [2]; [30]) was “ns (ns—no selectivity)”, the IC50 (T98G [3]) was 57.4 ± 4 µM and the IC50 (Hep G2 [4]) was 46.6 ± 3.3 µM. For the same compound, the IC50 (PC3 [5]) was 44 ± 3.1 µM, the “selectivity index (SI)” value (Hep G2 [6]; [30]) was “ns (ns—no selectivity)” and the “selectivity index (SI)” value (DU-145 [7]; [30]) was “ns (ns—no selectivity)”. The IC50 (A549 [8]) was 64.1 ± 4.5 µM, the IC50 (HuTu 80 [9]) was 11.4 ± 0.9 µM and the “selectivity index (SI)” value (SK-OV-3 [10]; [30]) was “ns (ns—no selectivity)”. The MIC [25, 31] was 62.5 ± 5.2 µM, the MBC [25, 32] was 250 ± 20 µM and the IC50 (PANC-1 [11]) was 16.1 ± 1.3 µM. The “onset of animal death after administration” value (mice of the CD-1 line) was 1 to 2 h, the acute toxicity class (mice of the CD-1 line) was “moderately toxic” and the LD50 at 14 days [12] was 31.7 mg/kg. The “selectivity index (SI)” value (PC3 [13]; [30]) was “ns (ns—no selectivity)”, the “Minimum Inhibitory Concentration (MIC)” value [26] was “–” and the “Minimum bactericidal and fungicidal concentrations (MBC, MFC)” value [26] was “–”. The MIC ([27]; Bacillus cereus, read-out: Minimum Inhibitory Concentration (MIC)) was 62.5 ± 5.3 µM, the “Minimum bactericidal and fungicidal concentrations (MBC, MFC)” value [27] was “–” and the “selectivity index (SI)” value (M-HeLa [14]; [30]) was “ns (ns—no selectivity)”. For the same compound, the “selectivity index (SI)” value (MCF-7 [15]; [30]) was “ns (ns—no selectivity)”, the “Minimum Inhibitory Concentration (MIC)” value [28] was “–” and the “Minimum bactericidal and fungicidal concentrations (MBC, MFC)” value [28] was “–”. The “selectivity index (SI)” value (T98G [16]; [30]) was “ns (ns—no selectivity)”, the IC50 (SK-OV-3 [17]) was 46.6 ± 3.5 µM and the MIC (MRSA-2; [31]) was 125 ± 11 µM. The MBC (MRSA-2; [32]) was 125 ± 10 µM, the “selectivity index (SI)” value (PANC-1 [18]; [33]) was 1.1 and the IC50 (DU-145 [19]) was 26.2 ± 1.9 µM. For the same compound, the IC50 (MCF-7 [20]) was 26 ± 1.8 µM, the IC50 (M-HeLa [21]) was 52.4 ± 3.7 µM and the “selectivity index (SI)” value (HuTu 80 [22]; [33]) was 1.6.
